{"source": "paper PMC6435658", "about": "“Investigation into the Molecular Mechanisms underlying the Anti-proliferative and Anti-tumorigenesis activities of Diosmetin against HCT-116 Human Colorectal Cancer” (Scientific Reports, 2019)", "key": {"MDA-MB 468": {"system": "MDA-MB 468", "set-up": "method as in PMID 19424633, PMID 27176768, PMID 26847170, PMID 20183323", "conditions": "MDA-MB 468, 24 h treatment; ref [10],[13],[15],[47]; cited from earlier work"}, "Colo205": {"system": "Colo205", "set-up": "method as in PMID 19424633, PMID 27176768, PMID 26847170, PMID 20183323", "conditions": "Colo205, 24 h treatment; ref [10],[13],[15],[47]; cited from earlier work"}, "HepG-2": {"system": "HepG-2", "set-up": "method as in PMID 19424633, PMID 27176768, PMID 26847170, PMID 20183323", "conditions": "HepG-2, 24 h treatment; ref [10],[13],[15],[47]; cited from earlier work"}, "HT-29 cells": {"system": "HT-29 cells", "assay": "MTT cytotoxicity assay, HT-29", "type": "cell-based, human", "conditions": "for IC50: Homo sapiens, MTT", "procedure": "[Worded in the source for another cell line; this cell line is reported under the same test.] Cytotoxicity property of Dis against HCT-116 and CCD-841 cells were measured by MTT assay as described by Mossman[77]. Briefly, cells were treated with different concentration of Dis and 5-Fu (positive control) with serial dilution factor of 2 for 8 concentrations in 96 well-plate for different time points (24 h, 48 h and 72 h). Subsequently at the end of each time point 20 µl of MTT (5 mg/ml, Affymetrix,Cleveland, OH, USA) were added to each well followed by 4 h incubation. The solutions were aspirated after 4 h and 100 µl of DMSO were added to each well. Absorbance for each well was read at 570 nm as measured by using microplate reader (Tecan Infinite multimode, Männedorf, Switzerland). Cytotoxicity (cell death) was measured by using the following formula: Celldeath(%)=sampleOD−controlOD/controlOD100\nThis assay was performed in triplicates in three independent experiments. The cytotoxicity property of Dis was presented as IC50 value."}, "HCT-116 cells [1]": {"system": "HCT-116 cells", "assay": "Human apoptosis protein array (proteome profiler)", "type": "cell-based", "conditions": "vs control", "procedure": "Apoptosis protein expression profiling was performed using human apoptosis array (R&D Systems, Minneapolis, MN, USA) according to the manufacturer’s protocol. In brief, 2 × 10^6 HCT-116 cells were seeded and treated with Dis in 75 cm^2 flask and incubated for 48 h. Cells were harvested and lysed via lysis buffer reagent and was quantified using Pierce BCA protein assay kit (Thermo Scientific™, Pittsburgh, PA, USA). The membrane provided was blocked in blocking solution reagent and treated overnight with cell lysates protein. The membrane was washed and subsequently incubated with detection antibody cocktail and streptavidin horseradish peroxidase-conjugated. Chemiluminescent reagents were added to the membrane and then exposed to X-ray film to detect the protein expression levels in treated cells as compared to untreated cells. Images were quantified via ImageJ software (NIH, USA). The list of investigated proteins is provided as supplementary data (Table S2)."}, "HCC": {"system": "HCC", "set-up": "method as in PMID 19424633, PMID 27176768, PMID 26847170, PMID 20183323", "conditions": "24 h treatment, ref [10],[13],[15],[47]; cited from earlier work"}, "HCT-116 cells [2]": {"system": "HCT-116 cells", "assay": "Multiple cytotoxicity assay (Cellomics multiparameter cytotoxicity 3 kit)", "type": "cell-based, human", "conditions": "HCT-116, Dis 3.58 µg/ml", "procedure": "Cellomics multiparameter cytotoxicity 3 kit (Thermo Scientific™, Pittsburgh, PA, USA) was used to investigate the vital apoptotic events in HCT-116 cells in the presence of Dis. Cytotoxicity 3 assay was used to provide information about the changes in nuclear morphology, cell membrane integrity, cytochrome C release and mitochondrial outer membrane permeabilization (MOMP). HCT-116 cells were seeded in 24 well-plate and covered by a cover slide followed by treatment with Dis for 24 h, 48 h and 72 h. Treated cells were stained with YoYo dye (life technology, CA, USA) and Mitotracker dye (life technology, CA, USA) followed by fixation and blocking procedures according to the manufacture’s protocol. Primary cytochrome C (Thermo Scientific™, Pittsburgh, PA, USA) antibody and secondary DyLight 650 (Thermo Scientific™, Pittsburgh, PA, USA) were added to each well and incubated for 1 h in the dark. Hoechst 33342 dye (Thermo Scientific™, Pittsburgh, PA, USA) was added in the last step to stain the nuclei of the cells. Cells were washed and cover slides were transferred on the slide and introduced to confocal Leica TCS SP5 II microscope (Leica Microsystems, Mannheim, Germany). Intensity of each dye was measured by using LAS X software."}, "caspase 9": {"system": "caspase 9", "assay": "Caspase-Glo 9 bioluminescent assay", "type": "cell-based, human", "conditions": "HCT-116, 24 h, 48 h, 72 h, time dependent", "procedure": "To assess the effect of Dis on caspase cascades in treated cells, activities of caspase-Glo 3/7, caspase-Glo 8 and caspase-Glo 9 assays (Promega, Madison, WI, USA) were performed. Briefly, HCT-116 cells with the density of 10^4 cells/well were seeded in 96 well-plates. Cells were treated with Dis for 24 h, 48 h and 72 h. This assay was performed in triplicates for each time point. A total of 6 wells were preserved for samples without cells but with media and reagents as the blank samples, and for the untreated cells as negative control. At the end of incubation time, 100 µl caspase-glo mixture were added to each well and incubated for 1 h in the dark according to the manufacturer’s instructions. Optical density was measured via multimode microplate reader (Tecan Infinite, Männedorf, Switzerland)."}, "HCT-116 cells [3]": {"system": "HCT-116 cells", "assay": "Cell cycle analysis by flow cytometry", "type": "cell-based, human", "conditions": "HCT-116, 24 h, 48 h, 72 h", "procedure": "Flow cytometry analysis was performed to determine any disruption during the cell cycle of HCT-116 cells in the presence of Dis. HCT-116at density of 2 × 10^6 cells were seeded and treated for 24 h, 48 h and 72 h in a 75 cm^2 flask. Negative control was treated with 0.02% DMSO. After fixation of the cells with 70% ethanol, cells were preserved in −20 °C overnight followed by washing and staining with 500 µl of PI/Rnase dye (BD Biosciences, San Jose, CA, USA) and incubated for 30 min. DNA content analysis was performed using BD FACSCanto II flow cytometer instrument and BD FACS Diva software (BD FACSCanto™II, San Jose, CA, USA). A total of 15,000 events per sample were recorded for analysis. ModFit LT version 3.0 software was used for analyzing the data."}}}
{"smiles": "COc1ccc(-c2cc(=O)c3c(O)cc(O)cc3o2)cc1O", "note": "[Dis, Diosmetin]", "values": [{"measurement": "IC50", "setting": "MDA-MB 468", "result": 1.35, "unit": "µg/mL"}, {"measurement": "IC50", "setting": "Colo205", "result": 29, "unit": "µg/mL"}, {"measurement": "IC50", "setting": "HepG-2", "result": 12, "unit": "µg/mL"}, {"measurement": "IC50", "setting": "HT-29 cells; HT-29, 24 h", "result": "44.5 ± 1.75", "unit": "µg/mL"}, {"measurement": "IC50", "setting": "HT-29 cells; HT-29, 48 h", "result": "17.6 ± 0.61", "unit": "µg/mL"}, {"measurement": "IC50", "setting": "HT-29 cells; HT-29, 72 h", "result": "11.46 ± 0.1", "unit": "µg/mL"}, {"measurement": "Selectivity Index (SI)", "setting": "HT-29 cells; IC50 CCD-841 / IC50 HT-29, 24 h", "result": 5.31}, {"measurement": "Selectivity Index (SI)", "setting": "HT-29 cells; IC50 CCD-841 / IC50 HT-29, 48 h", "result": 2.96}, {"measurement": "Selectivity Index (SI)", "setting": "HT-29 cells; IC50 CCD-841 / IC50 HT-29, 72 h", "result": 3.53}, {"measurement": "Protein expression of caspase 3 cleavage, fold change", "setting": "HCT-116 cells [1]; HCT-116, 3.58 µg/ml Dis, 48 h", "result": 2.61}, {"measurement": "Protein expression of pro-caspase 3, fold change", "setting": "HCT-116 cells [1]; HCT-116, 3.58 µg/ml Dis, 48 h", "result": 0.75}, {"measurement": "Hsp27 expression, gene and protein levels", "setting": "HCT-116 cells [1]; HCT-116, 48 h", "result": "significantly decreased"}, {"measurement": "expression of FADD", "setting": "HCT-116 cells [1]; HCT-116, 48 h", "result": "significantly increased"}, {"measurement": "protein expression level of Bax", "setting": "HCT-116 cells [1]; HCT-116, 48 h", "result": "accelerated"}, {"measurement": "protein expression level of Cytochrome C", "setting": "HCT-116 cells [1]; HCT-116, 48 h", "result": "accelerated"}, {"measurement": "protein expression of Survivin", "setting": "HCT-116 cells [1]; HCT-116, 48 h", "result": "significantly decreased"}, {"measurement": "IC50", "setting": "HCC", "result": 50, "unit": "µg/mL"}, {"measurement": "Cytochrome C release", "setting": "HCT-116 cells [2]", "result": "releases of Cytochrome C from mitochondria to cytosol"}, {"measurement": "mitochondrial membrane potential", "setting": "HCT-116 cells [2]; Mitotracker uptake", "result": "losses of the mitochondrial membrane potential"}, {"measurement": "cell permeability", "setting": "HCT-116 cells [2]; YoYo dye", "result": "increases"}, {"measurement": "cleavage of caspase 9", "setting": "caspase 9", "result": "significantly increased"}, {"measurement": "cell cycle arrest", "setting": "HCT-116 cells [3]", "result": "arrested in G2/M phase"}]}
